In assay [1] the test system is cultured human mast cells (CHMC). Kind of assay: CHMC low cell density ionomycin activation: tryptase assay. The class given is cell-based. The conditions noted are these: Low Density CHMC, ionomycin activation, tryptase readout, read-out: CHMC Ionomycin Tryptase.
Assay [2] has the same test system. Kind of assay: CHMC low cell density IgE activation: tryptase and LTC4 assays. The class given is cell-based. The conditions noted are these: Low Density CHMC, anti-IgE activation, tryptase readout, read-out: CHMC anti-IgE Tryptase. An outline of the steps: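 Cultured human mast cells at low density (1000-1500 per well) rested 1 h at 37° C, then stimulated with anti-IgE for 30 min at 37° C. Supernatant tryptase measured with fluorogenic substrate (30 min, room temperature); LTC4 quantified by ELISA on diluted supernatant.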

`Oc1ccc(CCNc2ncc(F)c(NCCc3ccc(O)cc3)n2)cc1` [Compound R925791, N2,N4-Bis[2-(4-hydroxyphenyl)ethyl]-5-fluoro-2,4-pyrimidinediamine]: the IC50 in assay [1] (Homo sapiens, Mast cell) was greater than 10 µM; in assay [2] (Homo sapiens, Mast cell), greater than 10 µM.

For `Oc1ccc(CCNc2ncc(Br)c(NCCc3ccc(O)cc3)n2)cc1` [Compound R925792, N2,N4-Bis[2-(4-hydroxyphenyl)ethyl]-5-bromo-2,4-pyrimidinediamine], the IC50 in assay [1] (Homo sapiens, Mast cell) is greater than 10 µM; in assay [2] (Homo sapiens, Mast cell), 6.25 µM.

Consider `Fc1cnc(Nc2ccc3c(c2)OCCO3)nc1NC1CCCCC1` [Compound R925794, N4-Cyclohexyl-N2-(3,4-ethylenedioxyphenyl)-5-fluoro-2,4-pyrimidinediamine], for which the IC50 in assay [1] (Homo sapiens, Mast cell) was greater than 10 µM; in assay [2] (Homo sapiens, Mast cell) it was greater than 10 µM.

Regarding `O=C(O)C1CCC(Nc2nc(Nc3ccc4c(c3)OCCO4)ncc2F)CC1` (centres unmarked) [Compound R925795, N4-(4-Carboxycyclohexyl)-N2-(3,4-ethylenedioxyphenyl)-5-fluoro-2,4-pyrimidinediamine], the IC50 was greater than 10 µM in assay [1] (Homo sapiens, Mast cell) and greater than 10 µM in assay [2] (Homo sapiens, Mast cell).

With `Brc1cnc(Nc2ccccc2-c2ccccc2)nc1Nc1ccccc1-c1ccccc1` [Compound R925798, N2,N4-Bis(2-phenylphenyl)-5-bromo-2,4-pyrimidinediamine], the IC50 in assay [1] (Homo sapiens, Mast cell) was greater than 10 µM; in assay [2] (Homo sapiens, Mast cell) it was greater than 10 µM.

Turning to `COc1ccc(-c2ccccc2)cc1Nc1ncc(Br)c(Nc2cc(-c3ccccc3)ccc2OC)n1` [Compound R925799, N2,N4-Bis(2-methoxy-5-phenylphenyl)-5-bromo-2,4-pyrimidinediamine], the IC50 in assay [1] (Homo sapiens, Mast cell) was greater than 10 µM; in assay [2] (Homo sapiens, Mast cell), greater than 10 µM.

Regarding `Cc1ccc(-c2ccccc2)cc1Nc1ncc(Br)c(Nc2cc(-c3ccccc3)ccc2C)n1` [Compound R925800, N2,N4-Bis(2-methyl-5-phenylphenyl)-5-bromo-2,4-pyrimidinediamine], the IC50 in assay [1] (Homo sapiens, Mast cell) was greater than 10 µM; in assay [2] (Homo sapiens, Mast cell) it was greater than 10 µM.

In the case of `COc1cc(-c2ccccc2)c(C)cc1Nc1ncc(Br)c(Nc2cc(C)c(-c3ccccc3)cc2OC)n1` [Compound R925801, N2,N4-Bis(2-methoxy-5-methyl-4-phenylphenyl)-5-bromo-2,4-pyrimidinediamine], the IC50 in assay [1] (Homo sapiens, Mast cell) is greater than 10 µM; in assay [2] (Homo sapiens, Mast cell), greater than 10 µM.

Turning to `COc1ccc(Nc2ncc(Br)c(Nc3ccc(OC)c(-c4ccccc4)c3)n2)cc1-c1ccccc1` [Compound R925802, N2,N4-Bis(4-methoxy-3-phenylphenyl)-5-bromo-2,4-pyrimidinediamine], the IC50 in assay [1] (Homo sapiens, Mast cell) was greater than 10 µM; in assay [2] (Homo sapiens, Mast cell), greater than 10 µM.

Take `Brc1cnc(Nc2cccc(-c3ccccc3)c2)nc1Nc1cccc(-c2ccccc2)c1` [Compound R925803, N2,N4-Bis(3-phenylphenyl)-5-bromo-2,4-pyrimidinediamine]: the IC50 is greater than 10 µM in assay [1] (Homo sapiens, Mast cell) and greater than 10 µM in assay [2] (Homo sapiens, Mast cell).

Turning to `c1ccc(-c2ccccc2Nc2ccnc(Nc3ccccc3-c3ccccc3)n2)cc1` [Compound R925804, N2,N4-Bis(2-phenylphenyl)-2,4-pyrimidinediamine], the IC50 was greater than 10 µM in assay [1] (Homo sapiens, Mast cell) and greater than 10 µM in assay [2] (Homo sapiens, Mast cell).

Turning to `COc1ccc(-c2ccccc2)cc1Nc1ccnc(Nc2cc(-c3ccccc3)ccc2OC)n1` [Compound R925805, N2,N4-Bis(2-methoxy-5-phenylphenyl)-2,4-pyrimidinediamine], the IC50 was greater than 10 µM in assay [1] (Homo sapiens, Mast cell) and greater than 10 µM in assay [2] (Homo sapiens, Mast cell).

In the case of `COc1ccc(Nc2ccnc(Nc3ccc(OC)c(-c4ccccc4)c3)n2)cc1-c1ccccc1` [Compound R925806, N2,N4-Bis(4-methoxy-3-phenylphenyl)-2,4-pyrimidinediamine], the IC50 in assay [1] (Homo sapiens, Mast cell) is greater than 10 µM; in assay [2] (Homo sapiens, Mast cell), greater than 10 µM.

`Cc1ccc(-c2ccccc2)cc1Nc1ccnc(Nc2cc(-c3ccccc3)ccc2C)n1` [Compound R925807, N2,N4-Bis(2-methyl-5-phenylphenyl)-2,4-pyrimidinediamine]: the IC50 is greater than 10 µM in assay [1] (Homo sapiens, Mast cell) and greater than 10 µM in assay [2] (Homo sapiens, Mast cell).

On to `COc1cc(-c2ccccc2)c(C)cc1Nc1ccnc(Nc2cc(C)c(-c3ccccc3)cc2OC)n1` [Compound R925808, N2,N4-Bis(2-methoxy-5-methyl-4-phenylphenyl)-2,4-pyrimidinediamine], for which the IC50 in assay [1] (Homo sapiens, Mast cell) is greater than 10 µM; in assay [2] (Homo sapiens, Mast cell) it was greater than 10 µM.

For `c1ccc(-c2cc(Nc3ccc4c(c3)OCCO4)nc(Nc3ccc4c(c3)OCCO4)n2)cc1` [Compound R925811, N2,N4-Bis(3,4-ethylenedioxyphenyl)-6-phenyl-2,4-pyrimidinediamine], the IC50 in assay [1] (Homo sapiens, Mast cell) was greater than 10 µM; in assay [2] (Homo sapiens, Mast cell) it was 3.3 µM.

With `Oc1cccc(Nc2cc(-c3ccccc3)nc(Nc3cccc(O)c3)n2)c1` [Compound R925812, N2,N4-Bis(3-hydroxyphenyl)-6-phenyl-2,4-pyrimidinediamine], the IC50 is greater than 10 µM in assay [1] (Homo sapiens, Mast cell) and 5.8 µM in assay [2] (Homo sapiens, Mast cell).

For the molecule `COC(=O)c1ccc(-c2cnc(Nc3ccc4c(c3)OCCO4)nc2Nc2ccc3c(c2)OCCO3)cc1` [Compound R925813, N2,N4-Bis(3,4-ethylenedioxyphenyl)-5-(4-methoxycarbonylphenyl)-2,4-pyrimidinediamine], the IC50 was greater than 10 µM in assay [1] (Homo sapiens, Mast cell) and greater than 10 µM in assay [2] (Homo sapiens, Mast cell).

With `CCOC(=O)C(Nc1ncc(C#N)c(NC(C(=O)OCC)C(C)C)n1)C(C)C` (centres unmarked) [Compound R925814, N2,N4-Bis(1-ethoxycarbonyl-2-methylpropyl)-5-cyano-2,4-pyrimidinediamine], the IC50 in assay [1] (Homo sapiens, Mast cell) was greater than 10 µM; in assay [2] (Homo sapiens, Mast cell) it was greater than 10 µM.

Consider `COC(=O)C(CC(C)C)Nc1ncc(C#N)c(NC(CC(C)C)C(=O)OC)n1` (centres unmarked) [Compound R925815, N2,N4-Bis(1-methoxycarbonyl-3-methylbutyl)-5-cyano-2,4-pyrimidinediamine], for which the IC50 in assay [1] (Homo sapiens, Mast cell) is greater than 10 µM; in assay [2] (Homo sapiens, Mast cell), greater than 10 µM.

`Oc1ccc(-c2cnc(Nc3ccc4c(c3)OCCO4)nc2Nc2ccc3c(c2)OCCO3)cc1` [Compound R925816, N2,N4-Bis(3,4-ethylenedioxyphenyl)-5-(4-hydroxyphenyl)-2,4-pyrimidinediamine]: the IC50 in assay [1] (Homo sapiens, Mast cell) is greater than 10 µM; in assay [2] (Homo sapiens, Mast cell), 6 µM.

On to `COC(=O)c1ccc(CNc2ncc(C#N)c(NCc3ccc(C(=O)OC)cc3)n2)cc1` [Compound R925819, N2,N4-Bis(methoxycarbonylbenzyl)-5-cyano-2,4-pyrimidinediamine], for which the IC50 in assay [1] and in assay [2] was greater than 10 µM throughout.

As to `COC(=O)c1ccc(CNc2nc(Nc3ccc4c(c3)OCCO4)ncc2C#N)cc1` [Compound R925820, 5-Cyano-N2-(3,4-ethylenedioxyphenyl)-N4-(methoxycarbonylbenzyl)-2,4-pyrimidinediamine], the IC50 in assay [1] and in assay [2] was greater than 10 µM in each case.

For the molecule `COC(=O)c1ccc(CNc2nc(Nc3cccc(O)c3)ncc2C#N)cc1` [Compound R925821, 5-Cyano-N2-(3-hydroxyphenyl)-N4-(methoxycarbonylbenzyl)-2,4-pyrimidinediamine], the IC50 in assay [1] and in assay [2] was greater than 10 µM in each case.

Regarding `C=CCNc1ncc(Br)c(Nc2cccc(O)c2)n1` [Compound R925822, N2-Allyl-5-bromo-N4-(3-hydroxyphenyl)-2,4-pyrimidinediamine], the IC50 is greater than 10 µM in assay [1] (Homo sapiens, Mast cell) and greater than 10 µM in assay [2] (Homo sapiens, Mast cell).

For `C=CCNc1ncc(F)c(Nc2ccc3c(c2)OCCO3)n1` [Compound R925823, N2-Allyl-N4-(3,4-ethylenedioxyphenyl)-5-fluoro-2,4-pyrimidinediamine], the IC50 in assay [1] (Homo sapiens, Mast cell) is greater than 10 µM; in assay [2] (Homo sapiens, Mast cell), greater than 10 µM.

As to `CCOC(=O)c1cnc(Nc2cccc(O)c2)nc1NOCc1ccccc1` [Compound R925824, N4-Benzyloxy-5-ethoxycarbonyl-N2-(3-hydroxyphenyl)-2,4-pyrimidinediamine], the IC50 in assay [1] (Homo sapiens, Mast cell) is greater than 10 µM; in assay [2] (Homo sapiens, Mast cell), greater than 10 µM.

In the case of `CCOC(=O)c1cnc(Nc2ccc3c(c2)OCCO3)nc1NOCc1ccccc1` [Compound R925837, N4-Benzyloxy-5-ethoxycarbonyl-N2-(3,4-ethylenedioxyphenyl)-2,4-pyrimidinediamine], the IC50 in assay [1] (Homo sapiens, Mast cell) is greater than 10 µM; in assay [2] (Homo sapiens, Mast cell), greater than 10 µM.

As for `CCOC(=O)c1nc(Nc2cccc(O)c2)nc(Nc2cccc(O)c2)c1[N+](=O)[O-]` [Compound R925849, N2,N4-Bis(3-hydroxyphenyl)-6-ethoxycarbonyl-5-nitro-2,4-pyrimidinediamine], the IC50 in assay [1] (Homo sapiens, Mast cell) was greater than 10 µM; in assay [2] (Homo sapiens, Mast cell) it was 8.2 µM.

Regarding `CCOC(=O)c1nc(Nc2ccc3c(c2)OCCO3)nc(Nc2ccc3c(c2)OCCO3)c1[N+](=O)[O-]` [Compound R925852, N2,N4-Bis(3,4-ethylendioxyphenyl)-6-ethoxycarbonyl-5-nitro-2,4-pyrimidinediamine], the IC50 in assay [1] (Homo sapiens, Mast cell) was greater than 10 µM; in assay [2] (Homo sapiens, Mast cell) it was 3 µM.

As for `CCOC(=O)c1nc(Nc2cccc(O)c2)nc(Nc2cccc(O)c2)c1N` [Compound R925856, 5-Amino-6-ethoxycarbonyl-N2,N4-bis(3-hydroxyphenyl)-2,4-pyrimidinediamine], the IC50 in assay [1] (Homo sapiens, Mast cell) was greater than 10 µM; in assay [2] (Homo sapiens, Mast cell) it was 9.85 µM.

For `CCOC(=O)c1nc(Nc2ccc3c(c2)OCCO3)nc(Nc2ccc3c(c2)OCCO3)c1N` [Compound R925857, 5-Amino-6-ethoxycarbonyl-N2,N4-bis(3,4-ethylenedioxyphenyl)-2,4-pyrimidinediamine], the IC50 in assay [1] (Homo sapiens, Mast cell) is greater than 10 µM; in assay [2] (Homo sapiens, Mast cell) it was 5.95 µM.

For `Oc1cccc(Nc2ncc(C(F)(F)F)c(Nc3cccc(O)c3)n2)c1` [Compound R925863, N2,N4-Bis(3-hydroxyphenyl)-5-trifluoromethyl-2,4-pyrimidinediamine], the IC50 in assay [1] (Homo sapiens, Mast cell) is greater than 10 µM; in assay [2] (Homo sapiens, Mast cell) it was 0.274 µM.

For the molecule `CCOC(=O)CNc1nc(NCC(=O)OCC)c([N+](=O)[O-])c(C(=O)OCC)n1` [Compound R925864, N2,N4-Bis(ethoxycarbonylmethyl)-6-ethoxycarbonyl-5-nitro-2,4-pyrimidinediamine], the IC50 is greater than 10 µM in assay [1] (Homo sapiens, Mast cell) and greater than 10 µM in assay [2] (Homo sapiens, Mast cell).

The record behind these values is patent publication US10828301B2, “2,4-pyrimidinediamine compounds and their uses” (Rigel Pharmaceuticals, Inc, priority 2002, dated 2020).
